Values of other authors as cited in patent US11026933B2, “Compositions and methods for treatment of cancer” (Children's Hospital Medical Center, priority 2016, dated 2021).

Legend:
[1] = molecular target: T1, FOXM1 (Homo sapiens, UniProt Q08050); details: Halasi and Gartel, 2013
T1 sequence (Q08050 1-763): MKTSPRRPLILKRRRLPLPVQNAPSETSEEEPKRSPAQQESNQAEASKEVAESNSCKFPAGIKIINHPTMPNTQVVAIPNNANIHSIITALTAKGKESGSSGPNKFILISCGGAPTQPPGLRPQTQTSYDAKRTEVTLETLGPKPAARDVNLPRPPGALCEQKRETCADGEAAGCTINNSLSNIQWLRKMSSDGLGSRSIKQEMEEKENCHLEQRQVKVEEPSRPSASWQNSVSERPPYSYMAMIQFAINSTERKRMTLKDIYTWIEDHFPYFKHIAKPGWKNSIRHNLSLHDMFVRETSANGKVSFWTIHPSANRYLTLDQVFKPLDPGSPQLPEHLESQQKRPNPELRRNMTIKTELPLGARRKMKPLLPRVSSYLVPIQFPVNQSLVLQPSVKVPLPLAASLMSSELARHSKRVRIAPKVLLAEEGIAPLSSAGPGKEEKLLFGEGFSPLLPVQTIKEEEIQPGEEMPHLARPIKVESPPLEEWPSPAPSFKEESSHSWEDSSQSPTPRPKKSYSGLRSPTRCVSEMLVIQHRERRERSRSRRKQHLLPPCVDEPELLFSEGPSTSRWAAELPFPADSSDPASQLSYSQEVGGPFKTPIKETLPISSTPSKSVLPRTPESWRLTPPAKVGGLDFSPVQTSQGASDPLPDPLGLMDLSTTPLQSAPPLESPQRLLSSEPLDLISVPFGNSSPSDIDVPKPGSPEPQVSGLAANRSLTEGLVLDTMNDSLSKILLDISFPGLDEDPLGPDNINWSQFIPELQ

[2] = molecular target: T1, FOXM1; details: Halasi and Gartel, 2013; remark: listed apart in the source
[3] = tested on: proteasome; details: Halasi and Gartel, 2013
[4] = molecular target: T1, FOXM1; details: Gormally et al., 2014

| Structure (SMILES) | inhibition of FOXM1 in mouse tumor models [1] | inhibition of FOXM1 in cultured tumor cells [2] | proteasome inhibition [3] | FOXM1 binding to DNA [4] | binding to FOXM1 protein [4] |
| --- | --- | --- | --- | --- | --- |
| C=C(NC(=O)C(=C)NC(=O)c1csc(C2=N[C@@H]3c4csc(n4)[C@H]4NC(=O)c5csc(n5)[C@H]([C@](C)(O)[C@@H](C)O)NC(=O)[C@H]5CSC(=N5)/C(=C/C)NC(=O)[C@H]([C@@H](C)O)NC(=O)c5csc(n5)[C@]3(CC2)NC(=O)[C@H](C)NC(=O)C(=C)NC(=O)[C@H](C)NC(=O)[C@H]([C@@H](C)CC)N[C@@H]2C=Cc3c([C@H](C)O)cc(nc3[C@H]2O)C(=O)O[C@@H]4C)n1)C(N)=O [thiostrepton] | inhibited FOXM1 | inhibited FOXM1 | found to be proteasome inhibitors | – | – |
| C=C(NC(=O)C(=C)NC(=O)c1csc(C2=N[C@@H]3c4csc(n4)[C@H]4NC(=O)c5csc(n5)[C@H]([C@](C)(O)[C@@H](C)O)NC(=O)[C@H]5CSC(=N5)/C(=C/C)NC(=O)[C@H]([C@@H](C)O)NC(=O)c5csc(n5)[C@]3(CC2)NC(=O)[C@H](C)NC(=O)C(=C)NC(=O)C(=C)NC(=O)[C@H](C(C)C)N[C@@H]2C=Cc3c([C@H](C)O)cc(nc3[C@H]2O)C(=O)O[C@@H]4C)n1)C(N)=O [Siomycin A] | inhibited FOXM1 | inhibited FOXM1 | found to be proteasome inhibitors | – | – |
| Nc1c(C(=O)Nc2ccc(F)cc2)sc2nc(-c3cccs3)cc(C(F)(F)F)c12 [FDI-6] | – | – | – | blocked FOXM1 binding to DNA | directly bound to FOXM1 protein |
